Source: patent publication US7129334B2, “Synthetic peptide and uses for same” (priority 2001, dated 2006)
Where no end group is shown, it is not given here.

Tests used:
PC12 cells = assay: Neurite growth on PC12 cells; format: cell-based
Experimental: Biological Activity of Fragments on PC12 cells: The trypsin digested fragments in various concentrations were tested for neurite growth on PC12 cells. Tissue culture plates having 24 wells were seeded with 10^5 PC12 cells in serum free Dulbeco Modified Eagle's medium (DMEM). The results were read after 96 hours for neurite outgrowth.

[1] = Mitogenic activity of synthetic constructs (deletion series); format: cell-based; conditions: constructs of 5 to 21 amino acids compared
Excerpt: Several synthetic constructs were made based on portions of this sequence by deleting one amino acid from one terminal at a time. In this manner, several constructs consisting of 5 to 21 amino acids were made and tested for mitogenic activity. […] […] This peptide is designated hereinafter as Oxynor peptide -10.

4 mm punched wounds = 4 mm punched wounds on the back of mice; format: in vivo
Experimental: Experimentally produced 4 mm punched wounds on the back of mice were treated with β taipoxin to compare with Oxynor peptide-10 treatment.

[2] = test system: 6 mm ischemic skin wounds; assay: 6 mm ischemic skin wounds in rat; format: in vivo; conditions: 100 μg/ml in hydrogel vehicle once daily; days 7 and 10
Experimental: Natural β-taipoxin and Oxynor peptide-10 were tested against each other in vivo at a concentration of 100 μg/ml in hydrogel vehicle applied once daily to help heal 6 mm ischemic skin wounds in rat. At days 7 and 10 the wounds treated with Oxynor peptide-10 were about 15% smaller in area than the wounds treated with natural β-taipoxin.

Anti-β-taipoxin = assay: Immunological reaction with anti-β-taipoxin; format: binding, mice
Excerpt: This proves that Oxynor peptide-10 is an integral part of the natural β-taipoxin.

Substance: KGGSLLNFANLIENDVPIDHM [Oxynor peptide-21]
- neurite growth of trypsin digest fragments (PC12 cells; 10^5 PC12 cells, serum free DMEM, read after 96 hours): most neurite growth at the lowest concentration

Substance: SLLNFANLIE [Oxynor peptide-10]
- neurite growth on PC12 cells (PC12 cells; similar concentrations (2 to 5) in serum-free medium): produced neurite growth
- mitogenic activity [1]: most active
- closure of wounds (4 mm punched wounds; after six days, PBS controls open): complete closure of the wounds
- histological examination of the skin around the wounds (4 mm punched wounds; mice, treated wounds): epidermis almost like normal skin
- wound area smaller than wounds treated with natural β-taipoxin [2]: about 15%
- immunological reaction with anti-β-taipoxin made in mice (Anti-β-taipoxin): reacted immunologically

Substance: Ser Leu Leu Asn Phe (SLLNF; SYNTHESIZED. CORRESPONDS TO POSITIONS 4-8 ABOVE.) [Oxynor peptide-5]
- mitogenic activity [1]: active, but less active
